Patent US9315563B2, “Peptides that inhibit angiotensin converting enzyme and peptides with antioxidant activity purified from ovotransferrin and methods of producing and using the same” (The Governors of the University of Alberta, priority 2009, dated 2016)
“And” between values parts separate entries of the source, which are not always exact repeats. Equal values may be shown once.

Experiment: ORAC-FL assay (oxygen radical absorbance capacity)
Conditions: for ORAC: chemically synthesized peptides, Trolox equivalent; for ORAC value (sign, in words): suggesting prooxidant activity; for Change of antioxidant activity on extension of the peptide: ORAC, relative to GWNI, WNIP or AGWNIP
Procedure: Briefly, 80 mM AAPH and 200 nM fluorescein in 75 mM phosphate buffer at pH 7.4 were prepared for each experiment. For each run, 20 μL of antioxidant, and 80 μL of phosphate buffer (or 100 μL of Trolox standard solutions at final concentrations of 1 to 8 μM) were placed in wells of a 96-well microplate, followed by addition of 50 μL of the fluorescein solution. The mixture was preincubated for 15 min at 37° C. 50 μL of AAPH solution was added rapidly using a multichannel pipet. The microplate was immediately placed in a Fluoroskan Ascent microplate reader (Thermo Electron Corporation) with 485-P excitation and 538-P emission filters and the fluorescence recorded every minute for 100 min. All readings were recorded using Fluoroskan Ascent software. The area under the curve of fluorescence decay (AUC) was calculated using Graphpad prism software (trial version). Regression equations between AUC and antioxidant concentrations were calculated for all the samples. The ORAC value was calculated by dividing the slope of sample regression curve by the slope of Trolox regression curve. Final ORAC values were expressed as μmol of Trolox equivalent/mg of protein or peptide.

Compound	ORAC	ORAC value (sign, in words)	Change of antioxidant activity on extension of the peptide
LVEKGDVAFI	−0.07 ± 0.03 μmol/μmol	negative ORAC values	
VIPMGL	2.89 ± 0.15 μmol/μmol		
IANNEADAISLDGGQVFEAG	0.43 ± 0.05 μmol/μmol		
GWNI	13.90 μmol/μmol and 13.90 ± 1.05 μmol/μmol		
IEWEGIESGSVEQA	0.73 ± 0.16 μmol/μmol		
LSKAQSDFG	−1.40 ± 0.69 μmol/μmol	negative ORAC values	
LGFEYY	7.25 ± 0.71 μmol/μmol		
AGWNIPIGT	5.25 ± 0.26 μmol/μmol		did not decrease the antioxidant activity further
IAAEVYEHTEGSTTSY	2.39 ± 0.17 μmol/μmol		
AGWNI	8.55 ± 0.60 μmol/μmol		decreased the antioxidant activity by half
WNIP	15.47 μmol/μmol and 15.47 ± 0.68 μmol/μmol		
PIAAEVYEHTEGSTTSY	1.68 ± 0.03 μmol/μmol		
LGFEY	9.79 ± 0.55 μmol/μmol		
GWNIP	6.19 ± 0.64 μmol/μmol		decreased the antioxidant activity by half
Oc1cc(O)c2c(c1)O[C@H](c1ccc(O)c(O)c1)[C@@H](O)C2 [(+)-catechin, reference compound]	14.9 μmol/μmol		
AGWNIP	7.64 ± 0.83 μmol/μmol		decreased the antioxidant activity by half
AIEWEGIESGSVEQA	0.95 ± 0.46 μmol/μmol		
